Values quoted from earlier work, collected in patent US20040076682A1, “Novel ophthalmic compositions” (priority 2001, published 2004).
Converted amounts (≈) assume the structure as drawn.

Tested on: Streptococcus sp
Details: Streptococcus sp clinical isolate of ocular infections

MIC80: 12.5 µg/mL (≈ 39.1 µM)
Structure (SMILES): CCn1cc(C(=O)O)c(=O)c2cc(F)c(N3CCNCC3)cc21 [norfloxacin]
